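Assay format: 96-well plates, 48-hour exposure. GI50 = concentration required for 50% inhibition of growth. The concentration for full growth arrest is given as TGI.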
Assays:
Assay in all cases: DTP human tumour cell line panel, 48 h
[1] = test system: 786-0 renal
[2] = test system: A498 renal
[3] = test system: A549 NSCLC
[4] = test system: ACHN renal
[5] = test system: BT-549 breast
[6] = test system: CAKI-1 renal
[7] = test system: CCRF-CEM leukemia
[8] = test system: COLO 205 colon
[9] = test system: DU-145 prostate
[10] = test system: EKVX NSCLC
[11] = test system: HCC-2998 colon
[12] = test system: HCT-116 colon
[13] = test system: HCT-15 colon
[14] = test system: HL-60(TB) leukemia
[15] = test system: HOP-62 NSCLC
[16] = test system: HOP-92 NSCLC
[17] = test system: HS 578T breast
[18] = test system: HT29 colon
[19] = test system: IGROV1 ovarian
[20] = test system: K-562 leukemia
[21] = test system: KM12 colon
[22] = test system: LOX IMVI melanoma
[23] = test system: M14 melanoma
[24] = test system: MALME-3M melanoma
[25] = test system: MCF7 breast
[26] = test system: MDA-MB-231 breast
[27] = test system: MDA-MB-435
[28] = test system: MDA-MB-468 breast
[29] = test system: MOLT-4 leukemia
[30] = test system: NCI-H226 lung
[31] = test system: NCI-H23 lung
[32] = test system: NCI-H460 lung
[33] = test system: NCI-H522 lung
[34] = test system: OVCAR-3 ovarian
[35] = test system: OVCAR-4 ovarian
[36] = test system: OVCAR-5 ovarian
[37] = test system: OVCAR-8 ovarian
[38] = test system: PC-3 prostate
[39] = test system: RPMI-8226 leukemia
[40] = test system: RXF 393 renal
[41] = test system: SF-268 CNS
[42] = test system: SF-295 CNS
[43] = test system: SF-539 CNS
[44] = test system: SK-MEL-28 melanoma
[45] = test system: SK-MEL-5 melanoma
[46] = test system: SK-OV-3 ovarian
[47] = test system: SN12C renal
[48] = test system: SNB-19 CNS
[49] = test system: SNB-75 CNS
[50] = test system: SR leukemia
[51] = test system: SW-620 colon
[52] = test system: TK-10 renal
[53] = test system: U251 CNS
[54] = test system: UACC-257 melanoma
[55] = test system: UACC-62 melanoma
[56] = test system: UO-31 renal

For `Clc1cccc(-c2ccc(OCCCN3CCN(c4ccncc4)CC3)cc2)c1`, the GI50 [1] was 1700 nM, the TGI [1] was 3070 nM and the GI50 [2] was 5640 nM. For the same compound, the TGI [2] was 19300 nM, the GI50 [3] was 1710 nM and the TGI [3] was 3260 nM. It also gave a GI50 [4] of 1750 nM, a TGI [4] of 3160 nM and a GI50 [5] of 2500 nM. It also gave a TGI [5] of 5920 nM, a GI50 [6] of 1670 nM and a TGI [6] of 3330 nM. It also gave a GI50 [7] of 1490 nM, a TGI [7] of 3880 nM and a GI50 [8] of 1640 nM. The TGI [8] was 3080 nM, the GI50 [9] was 2090 nM and the TGI [9] was 4790 nM. The GI50 [10] was 1850 nM, the TGI [10] was 4650 nM and the GI50 [11] was 1820 nM. For the same compound, the TGI [11] was 3250 nM, the GI50 [12] was 1500 nM and the TGI [12] was 3010 nM. For the same compound, the GI50 [13] was 1230 nM, the TGI [13] was 2550 nM and the GI50 [14] was 1700 nM. The TGI [14] was 4480 nM, the GI50 [15] was 1670 nM and the TGI [15] was 3120 nM. The GI50 [16] was 1280 nM, the TGI [16] was 4280 nM and the GI50 [17] was 1960 nM. It also gave a TGI [17] of 5110 nM, a GI50 [18] of 1550 nM and a TGI [18] of 3180 nM. It also gave a GI50 [19] of 1710 nM, a TGI [19] of 3220 nM and a GI50 [20] of 1630 nM. It also gave a TGI [20] of 9430 nM, a GI50 [21] of 1770 nM and a TGI [21] of 3280 nM. For the same compound, the GI50 [22] was 1620 nM, the TGI [22] was 3030 nM and the GI50 [23] was 1760 nM. It also gave a TGI [23] of 3260 nM, a GI50 [24] of 1760 nM and a TGI [24] of 3220 nM. The GI50 [25] was 1500 nM, the TGI [25] was 3040 nM and the GI50 [26] was 1570 nM. It also gave a TGI [26] of 2980 nM, a GI50 [27] of 1700 nM and a TGI [27] of 3160 nM. The GI50 [28] was 1660 nM, the TGI [28] was 3260 nM and the GI50 [29] was 2040 nM. It also gave a TGI [29] of 4710 nM, a GI50 [30] of 3510 nM and a TGI [30] of 15100 nM. For the same compound, the GI50 [31] was 2070 nM, the TGI [31] was 5090 nM and the GI50 [32] was 1740 nM. For the same compound, the TGI [32] was 3310 nM, the GI50 [33] was 1870 nM and the TGI [33] was 3790 nM. The GI50 [34] was 1790 nM, the TGI [34] was 3560 nM and the GI50 [35] was 2600 nM. For the same compound, the TGI [35] was 8320 nM, the GI50 [36] was 1930 nM and the TGI [36] was 4350 nM. For the same compound, the GI50 [37] was 2340 nM, the TGI [37] was 5810 nM and the GI50 [38] was 1940 nM. For the same compound, the TGI [38] was 6150 nM, the GI50 [39] was 1890 nM and the TGI [39] was 4910 nM. It also gave a GI50 [40] of 1240 nM, a TGI [40] of 2660 nM and a GI50 [41] of 2080 nM. It also gave a TGI [41] of 4690 nM, a GI50 [42] of 1750 nM and a TGI [42] of 3240 nM. The GI50 [43] was 1490 nM, the TGI [43] was 2850 nM and the GI50 [44] was 1820 nM. It also gave a TGI [44] of 3520 nM, a GI50 [45] of 1650 nM and a TGI [45] of 3040 nM. For the same compound, the GI50 [46] was 2810 nM, the TGI [46] was 10400 nM and the GI50 [47] was 1700 nM. It also gave a TGI [47] of 3360 nM, a GI50 [48] of 1940 nM and a TGI [48] of 3980 nM. For the same compound, the GI50 [49] was 1870 nM, the TGI [49] was 7270 nM and the GI50 [50] was 886 nM. The TGI [50] was greater than 100000 nM, the GI50 [51] was 1700 nM and the TGI [51] was 3270 nM. For the same compound, the GI50 [52] was 2730 nM, the TGI [52] was 8210 nM and the GI50 [53] was 1570 nM. For the same compound, the TGI [53] was 2990 nM, the GI50 [54] was 2080 nM and the TGI [54] was 4140 nM. The GI50 [55] was 1730 nM, the TGI [55] was 3170 nM and the GI50 [56] was 1650 nM. For the same compound, the TGI [56] was 3600 nM.
